The values that follow come from patent publication US6011008A, “Conjugates of biologically active substances” (priority 1998, dated 2000).

Data set [1] is described as follows: In vitro release (dialysis tubing method). The data set is classed as physicochemical. To be noted: for release of the conjugated drug: after 24 hours, buffer pH 7.4 at 37° C.; for drug released from the dialysis tube: after 5 hours, buffer pH 7.4, 37° C. The method, then:
A solution of the Schiff base or the amine conjugates (100 mg in 5 ml phosphate buffer pH7.4) was placed into a cellulose dialysis tubing of 12,000 MW cut off and the bag was placed into a 100 ml. buffer solution at 37° C. The drug release to the solution was monitored by UV absorption at 280 nm, unless otherwise indicated.
The release of DOX from the AG conjugates was determined using dialysis tubing as described above. The DOX-AG imine conjugate, the DOX-AG amine conjugate and a solution of the native drug were studied. The amount of DOX found in the solution was 2, 5, 8, 10 and 12% of the total dose after 2, 4, 7, 12 and 32 hours, respectively.
The Mitomycin release into the solution was measured as described above. The amount of drug found in the solution was 1, 2, 4, 5 and 8% of the total dose after 2, 4, 7, 12 and 32 hours, respectively.
In vitro release of Somatostatin was determined as described in the Methods and the somatostatin concentration was determined by the Folin-Lowry method for peptide analysis^(10).
Insulin was conjugated to oxidized AG (50 mg with 100 mg pure oxidized AG) using the method described above for somatostatin. The conjugation yield was about 75% as determined by nitrogen analysis and the Folin-Lowry method. The Schiff base derivative released about 25% of its drug content after 24 hours in phosphate buffer solution at […].

For a further data set, the system named is E. Coli. Kind of data set: Antimicrobial activity, filter paper on seeded agar plate. The data set is classed as cell-based. To be noted: 24 hours at 37° C., 6 mm filter paper, equivalent amounts of the drug. The protocol:
(§1) The antimicrobial activity of these conjugates was determined as described above. Saline solutions of equivalent amounts of the drug in free form or the imine or amine AG conjugates were absorbed onto a circular filter paper (6 mm in diameter) and placed on a seeded agar plate with Staphylococcus Aureus (10^5 /ml) and E. Coli incubated for 24 hours at 37° C. […] Similar results were obtained for the Polymyxin derivatives.

The next data set relates to Staphylococcus Aureus. Described as above. It counts as cell-based. To be noted: Staphylococcus Aureus (10^5 /ml), 24 hours at 37° C., 6 mm filter paper, equivalent amounts of the drug. The protocol:
as §1

In a further data set the test system is Escherichia coli. To be noted: Escherichia coli agar plates, after 24 hours of incubation.

Experimental for Escherichia coli: The antimicrobial activity of the conjugates was assayed by a cup method^(9) (agar plate method) using Escherichia coli agar plates and measuring the zone of growth inhibition.

With “Insulin-AG Schiff base derivative: Insulin conjugated to pure oxidized AG, Schiff base”, the “release of drug content” value in data set [1] (after 24 hours in phosphate buffer solution at […].) is on record as “about 25%”.
In the case of gentamicin, the inhibition zone in the data set with E. Coli and in the data set with Staphylococcus Aureus was > 10 mm each time.
As for “Somatostatin-AG amine conjugate: Somatostatin-AG Schiff base hydrogenated to the amine conjugate using NaBH4”, the “release of the conjugated drug” value in data set [1] is “did not release any”.
For the compound `NC[C@H]1O[C@H](O[C@H]2[C@H](O)[C@@H](O[C@H]3O[C@H](CO)[C@@H](O)[C@H](N)[C@H]3O)[C@H](N)C[C@@H]2N)[C@H](N)C[C@@H]1O` [tobramicin], the inhibition zone with E. Coli and in the data set on Staphylococcus Aureus was > 10 mm in each case.
As for `COc1cccc2c1C(=O)c1c(O)c3c(c(O)c1C2=O)C[C@@](O)(C(=O)CO)C[C@@H]3O[C@H]1C[C@H](N)[C@H](O)[C@H](C)O1` [DOX, Doxorubicin], the “drug released from the dialysis tube” value in data set [1] turned out to be 90%.
On to “Somatostatin-AG imine conjugate: Somatostatin conjugated to pure oxidized AG via imine bond”, for which, in data set [1], the “drug released from the dialysis tube” value is “about 5%” and the “release of the conjugated drug” value was ~18%.
Turning to `CO[C@@]12[C@H](COC(N)=O)C3=C(C(=O)C(C)=C(N)C3=O)N1C[C@@H]1N[C@@H]12` [Mitomycin C], in the data set with Escherichia coli, the inhibition zone is > 10 mm.
